Data published in patent US20210322327A1, “EXTRACELLULAR VESICLES COMPRISING STING-AGONIST” (Codiak BioSciences, Inc., priority 2018, published 2021).

Key:
[1] = tested on: B16F10 lung metastases; assay: B16F10 lung metastases after intratumoral treatment of the subcutaneous tumor; type: in vivo, C57BL/6 mice; conditions: 20 μg intratumoral
Source text: (§1) Activation of the STING pathway promotes antigen presentation and induces a durable T-cell response, as shown in Examples 11 and 12. Thus, the immune memory response induced by EXOSTING™ may be sufficient to prevent tumor metastasis after a local administration in a primary tumor. To test this hypothesis, exosomes purified from HEK293SF cells overexpressing PTGFRN were loaded with the cyclic dinucleotide 3-3 cAIMPdFSH as described in Example 1. C57BL/6 mice were inoculated subcutaneously with 1×10^6 B16F10 melanoma cells on day zero and challenged with an additional tail vein injection of 1×10^5 B16F10 melanoma cells to seed lung metastases (n=8 mice per group). Five, eight, and eleven days post-inoculation the mice were injected intratumorally at the subcutaneous tumor with PBS, 20 μg 3-3 cAIMPdFSH, 120 ng 3-3 cAIMPdFSH, or either 120 ng, 12 ng, or 1.2 ng 3-3 cAIMPdFSH loaded in PTGFRN-overexpressing exosomes (Exo STING Agonist). […] Lungs from all mice were harvested, imaged, and counted for metastases. […] As little as 12 ng of Exo STING Agonist prevented lung metastasis to the same extent as 20 μg STING Agonist (FIGS. 46B and 47).

[2] = tested on: B16F10 murine melanoma cells; assay: Advanced B16F10 melanoma tumor growth; type: in vivo, C57BL/6 mice; conditions: days 10, 13, 16
Procedure: Treatment was started when tumor volume reached ˜ 50 mm3. To test the activity in advanced tumor, C57BL/6 mice were inoculated subcutaneously with 1×10^6 B16F10 murine melanoma cells (n=5 mice per group) and waited until tumor volume reached ˜100 mm^3. Ten, thirteen, and sixteen days post-inoculation, the mice were injected intratumorally with exosomes, 30 μg of free 3-3 cAIMPdFSH, 0.3 μg of free 3-3 cAIMPdFSH, 0.1 μg of 3-3 cAIMPdFSH loaded in PTGFRN-overexpressing exosomes, or 0.3 μg of 3-3 cAIMPdFSH loaded in PTGFRN-overexpressing exosomes. Tumor volumes were measured daily until day 28, and animals were sacrificed when tumor volume reached 2000 mm^3.

[3] = Tumor pharmacokinetics after intratumoral injection; type: in vivo, C57BL/6 mice; conditions: B16F10 tumor
Procedure: To examine the tumor pharmacokinetics of STING agonist, C57BL/6 mice were inoculated subcutaneously with 1×10^6 B16F10 murine melanoma cells (n=3 mice per group and time). Eight days post-inoculation, the tumors were injected intratumorally with 30 μg of free 3-3 cAIMPdFSH, 0.3 μg of free 3-3 cAIMPdFSH, or 0.3 μg 3-3 cAIMPdFSH loaded in PTGFRN-overexpressing exosomes. Five minutes, thirty minutes, two hours, 6 hours, 24 hours, and 48 hours after injection, tumors were excised and lysed with 6 volume of plasma. The concentration of 3-3 cAIMPdFSH was measured by LC-MS/MS, as described in Example 1. Free 3-3 cAIMPdFSH in both 30 μg and 0.3 μg was disappeared quickly from tumor, having half-life of around 10 minutes.

[4] = tested on: STING pathway; assay: Cytokine levels after single intratumoral dose in C57BL/6 and STING knock-out tumor-bearing mice; type: in vivo, C57BL/6 mice and C57BL/6-Tmem173^gt mice; conditions: C57BL/6 mice; 20 μg intratumoral, four hours
Procedure: Three groups of C57BL/6 mice and C57BL/6-Tmem173^gt mice (4-5 mice per group) were inoculated subcutaneously with 1×10^6 B16F10 tumor cells. Eight days post-inoculation the mice were injected with a single intratumoral dose of PBS, 20 μg of free 3-3 cAIMPdFSH, or 0.1 μg of 3-3 cAIMPdFSH loaded in PTGFN-overexpressing exosomes (exeSTING). Four hours post-injection the tumors, draining lymph nodes, spleens, and serum were collected and cytokine levels were measured. […] In addition to gene expression, serum cytokine profiles are showing same trend (FIG. 58).

[5] = Plasma pharmacokinetics after intravenous injection; type: in vivo, C57BL/6 mice; conditions: 20 μg free
Procedure: To examine the pharmacokinetics of STING agonist in mouse plasma, naïve C57BL/6 mice were injected intravenously with 20 μg of free 3-3 cAIMPdFSH, or 0.1 μg, 0.3 μg, 0.6 μg 3-3 cAIMPdFSH loaded in PTGFRN-overexpressing exosomes. One, five, ten, and thirty minutes injection, blood was taken, and plasma were prepared. The concentration of 3-3 cAIMPdFSH was measured by LC-MS/MS, as described in Example 1.

[6] = tested on: B16F10 melanoma cells; assay: B16F10 subcutaneous primary tumor growth in lung metastasis challenge study; type: in vivo, C57BL/6 mice; conditions: by day 17
Source text: as §1

[7] = tested on: OVA-reactive splenocytes; assay: IFNγ ELISpot of splenocytes with OVA peptide SIINFEKL; type: in vivo, C57BL/6 mice
Procedure: As an orthogonal method to measure antigen-specific immunity, IFNγ-expression was measured by ELISpot according to standard protocols (ImmunoSpot®; Cellular Technology Limited). Splenocytes were homogenized to a single-cell suspension and plated (200,000 cells/well) in a plate coated with an anti-IFNγ antibody. The OVA peptide SIINFEKL was added to the cells for 18 hours to induce IFNγ production, cells were washed from the plate, and plate-bound IFNγ was detected using an orthogonal antibody (FIG. 41D). The total number of reactive spots per plate were counted and compared across groups using ImmunoSpot® software (Cellular Technology Limited).

[8] = tested on: peritoneal cells and splenocytes; assay: Immune cell activation (CD86) in peritoneum and spleen 24 hours after intraperitoneal dose; type: in vivo, C57BL/6 mice; conditions: 20 μg single IP dose
Procedure: A second experiment similar to the previous study was carried out with single-dose IP administration, and extended to 24 hours. Peritoneal cells and splenocytes were isolated from treated mice, and cell activation was measured by detection of CD86.

Row | SMILES | lung lesions by histology [1] | lung metastases compared to PBS [1] | tumor growth compared to exosomes control ([2]; 0.3 μg free, start ~100 mm^3) | tumor burden compared to exosomes control ([2]; 30 μg free) | half-life in tumor ([3]; 0.3 μg free) | half-life in tumor ([3]; 30 μg free) | IFNβ gene expression in tumors, draining lymph node, spleen [4] | half-life in plasma [5] | primary tumor growth ([6]; 120 ng free) | primary tumor growth ([6]; 20 μg intratumoral days 5, 8, 11) | OVA-reactivity (IFNγ spots) ([7]; 0.2 μg IP) | OVA-reactivity (IFNγ spots) ([7]; 20 μg IP) | peritoneal cell activation (CD86) [8] | spleen immune cell activation (CD86) [8]
1 | Nc1ncnc2c1ncn2[C@@H]1O[C@@H]2COP(=O)(S)O[C@H]3[C@@H](F)[C@H](n4cnc5c(=O)[nH]cnc54)O[C@@H]3COP(O)(=S)O[C@H]2[C@H]1F (some centres unmarked) [3-3 cAIMPdFSH, 3′3′-cAIMPdFSH] | significant amount of lung lesions inside of lung | dramatically reduced | tumor growth was not affected | great reduction of tumor burden | around 10 minutes | around 10 minutes | comparable in the 20 μg free STING agonist and 0.1 μg exosome-STING agonist groups | 1.2 min | no tumor regression observed | did not grow |  |  |  | 
2 | Nc1ncnc2c1ncn2[C@@H]1O[C@@H]2COP(O)(=S)O[C@@H]3C(O)[C@@H](COP(O)(=S)O[C@H]2[C@H]1O)O[C@H]3n1cnc2c(N)ncnc21 (some centres unmarked) [ML RR-S2 CDA] |  |  |  |  |  |  |  |  |  |  | very low levels of OVA-reactivity | highly reactive | activation of peritoneal B cells, macrophages, monocytes and conventional dendritic cells (cDCs) | moderate levels of immune cell activation
